Like-named read-outs stand apart in the source and are kept apart here.
Tests used:
[1] = Concentration achieved in formulations and excipient mixtures; type: physicochemical
Procedure: In initial formulation work for the amidine compounds described herein, in particular 3-[2-(4-carbamimidoyl-phenylcarbamoyl)-5-methoxy-4-vinyl-phenyl]-6-(cyclopropylmethyl-carbamoyl)-pyridine-2-carboxylic acid, extensive studies were carried out to identify a suitable mixture of excipients to produce the oral formulation described herein.
Specifically, a variety of approaches were taken to develop suitable oral formulations of 3-[2-(4-carbamimidoyl-phenylcarbamyl)-5-methoxy-4-vinyl-phenyl]-6-(cyclopropylmethyl-carbamoyl)-pyridine-2-carboxylic acid. The approaches taken included use of a variety of hydrophilic polymers, including α-cyclodextrin and a polyanionic 3-cyclodextrin derivative with a sodium sulfonate salt separated from the lipophilic cavity by a butyl ether or sulfobutylether spacer group in combination with a variety of co-solvents. In addition, the compound was evaluated in formulations created by a number of different technologies (such as dry blends, nanosuspensions, solid dispersion and emulsions) using a variety of approaches.

[2] = Phase 1 Part 2, multiple ascending dose pharmacokinetics (7 days, q8h); type: in vivo, human; settings: for Cmax / AUC(0-t) / Tmax / AUC / half-life / concentration at 8 h: human, plasma, oral; for AUC(0-t): read-out: AUC0-8; for concentration at 8 h: read-out: Ctau
Procedure: Part 2 of the study evaluated the safety, tolerability, PK, and PD of multiple ascending doses of the compound of Example 1. Twelve subjects were administered a 7-day course of the compound of Example 1 (n=10 subjects/cohort received the API and n=2 subjects/cohort received matching placebo) according to the following dose regimens: 100 mg of the compound of Example 1 or placebo every 8 hours (q8h) in Cohort 1; 200 mg of the compound of Example 1 or placebo q8h in Cohort 2; 400 mg of the compound of Example 1 or placebo q8h in Cohort 3 and 800 mg of the compound of Example 1 or placebo q8h in Cohort 4.
A total of 48 subjects were enrolled in Part 2 of the Study and 47 subjects completed the study. A summary of pharmacokinetic parameters for the compound of Example 1 for the first dose on Day 1 and last dose on Day 7 is presented in Table 17. […] Day 7 geometric mean exposure (AUCtau and Cmax) did increase with increasing dose. Drug exposure was dose proportional through 400 mg three times a day. At 400 mg three times a day, pre-dose geometric mean drug levels and coefficient of variation (CV) on day 7 were 28.6 ng/ml and 77% and post-dose geometric mean maximum drug levels and CV were 152 ng/ml and 57%. Plasma concentrations of the compound of Example 1 over 25 ng/ml are expected to be efficacious in treating conditions such as, but not limited to, HAE and AAE.

[3] = 400 mg three times a day, day 7
[4] = 100 mg, Day 1, 100 mg q 8 h, GM
[5] = 100 mg, Day 1, 100 mg q 8 h, Median
[6] = 100 mg, Day 7, 100 mg q 8 h, GM
[7] = 100 mg, Day 7, 100 mg q 8 h, Median
[8] = 200 mg, Day 1, 200 mg q 8 h, GM
[9] = 200 mg, Day 1, 200 mg q 8 h, Median
[10] = 200 mg, Day 7, 200 mg q 8 h, GM
[11] = 200 mg, Day 7, 200 mg q 8 h, Median
[12] = 400 mg, Day 1, 400 mg q 8 h, GM
[13] = 400 mg, Day 1, 400 mg q 8 h, Median
[14] = 400 mg, Day 7, 400 mg q 8 h, GM
[15] = 400 mg, Day 7, 400 mg q 8 h, Median
[16] = 800 mg, Day 1, 800 mg q 8 h, GM
[17] = 800 mg, Day 1, 800 mg q 8 h, Median
[18] = 800 mg, Day 7, 800 mg q 8 h, GM
[19] = 800 mg, Day 7, 800 mg q 8 h, Median

C=Cc1cc(C(=O)Nc2ccc(C(=N)N)cc2)c(-c2ccc(C(=O)NCC3CC3)nc2C(=O)O)cc1OC [Example 1, 3-[2-(4-carbamimidoyl-phenylcarbamoyl)-5-methoxy-4-vinyl-phenyl]-6-(cyclopropylmethyl-carbamoyl)-pyridine-2-carboxylic acid]
concentration dissolved ([1]; 1,2-propanediol, especially as part of a mixture of polar protic solvents): up to 140 mg/ml | concentration in formulation ([1]; initial formulations: cyclodextrins, co-solvents, dry blends, nanosuspensions, solid dispersion, emulsions): less than 10.5 mg/ml | concentration in formulation ([1]; novel excipient mixtures of the invention): at least 100 mg/ml | concentration dissolved ([1]; polyethylene glycol 600, especially as part of a mixture of polar protic solvents): up to 140 mg/ml | post-dose geometric mean maximum drug level [2, 3]: 152 ng/mL | pre-dose geometric mean drug level [2, 3]: 28.6 ng/mL | accumulation in Cmax and AUC after repeated dosing compared to first day ([2]; 7 days q8h): approximately 30% | Ctau ([2]; Day 7, 100 mg q 8 h, GM): 8.34 ng/mL | DN AUCtau ([2]; Day 7, 100 mg q 8 h, GM): 2.37 ng·h/mL/mg | Ctau ([2]; Day 7, 100 mg q 8 h, Median): 7.92 ng/mL | DN AUCtau ([2]; Day 7, 200 mg q 8 h, GM): 1.58 ng·h/mL/mg | DN AUCtau ([2]; Day 7, 400 mg q 8 h, GM): 1.34 ng·h/mL/mg | Ctau ([2]; Day 7, 800 mg q 8 h, GM): 23.7 ng/mL | DN AUCtau ([2]; Day 7, 800 mg q 8 h, GM): 0.847 ng·h/mL/mg | Ctau ([2]; Day 7, 800 mg q 8 h, Median): 30.3 ng/mL | time of maximal concentrations postdose ([2]; across dosing days and cohorts): approximately 2 hours | Cmax [2, 4]: 54.5 ng/mL | AUC(0-t) [2, 4]: 173 ng·h/mL | Cmax [2, 5]: 49.4 ng/mL | Tmax [2, 5]: 1 h | AUC(0-t) [2, 5]: 185 ng·h/mL | AUC [2, 6]: 237 ng·h/mL | Cmax [2, 6]: 72.6 ng/mL | half-life ([2]; 100 mg, Day 7, 100 mg q 8 h, GM, read-out: t1/2 (converted)): 12.4 h | AUC [2, 7]: 246 ng·h/mL | Cmax [2, 7]: 71.2 ng/mL | Tmax [2, 7]: 2 h | half-life ([2]; 100 mg, Day 7, 100 mg q 8 h, Median, read-out: t1/2 (converted)): 11.5 h | Cmax [2, 8]: 72 ng/mL | AUC(0-t) [2, 8]: 236 ng·h/mL | Cmax [2, 9]: 89.7 ng/mL | Tmax [2, 9]: 2 h | AUC(0-t) [2, 9]: 251 ng·h/mL | AUC [2, 10]: 316 ng·h/mL | Cmax [2, 10]: 83.6 ng/mL | concentration at 8 h [2, 10]: 12.9 ng/mL | half-life ([2]; 200 mg, Day 7, 200 mg q 8 h, GM, read-out: t1/2 (converted)): 12.6 h | AUC [2, 11]: 385 ng·h/mL | Cmax [2, 11]: 92.3 ng/mL | Tmax [2, 11]: 2 h | concentration at 8 h [2, 11]: 13 ng/mL | half-life ([2]; 200 mg, Day 7, 200 mg q 8 h, Median, read-out: t1/2 (converted)): 13.5 h | Cmax [2, 12]: 119 ng/mL | AUC(0-t) [2, 12]: 421 ng·h/mL | Cmax [2, 13]: 124 ng/mL | Tmax [2, 13]: 2 h | AUC(0-t) [2, 13]: 395 ng·h/mL | AUC [2, 14]: 534 ng·h/mL | Cmax [2, 14]: 152 ng/mL | concentration at 8 h [2, 14]: 17.4 ng/mL | half-life ([2]; 400 mg, Day 7, 400 mg q 8 h, GM, read-out: t1/2 (converted)): 13 h | AUC [2, 15]: 463 ng·h/mL | Cmax [2, 15]: 129 ng/mL | Tmax [2, 15]: 2 h | concentration at 8 h [2, 15]: 14.6 ng/mL | half-life ([2]; 400 mg, Day 7, 400 mg q 8 h, Median, read-out: t1/2 (converted)): 12.7 h | Cmax [2, 16]: 143 ng/mL | AUC(0-t) [2, 16]: 504 ng·h/mL | Cmax [2, 17]: 153 ng/mL | Tmax [2, 17]: 2 h | AUC(0-t) [2, 17]: 581 ng·h/mL | AUC [2, 18]: 678 ng·h/mL | Cmax [2, 18]: 187 ng/mL | half-life ([2]; 800 mg, Day 7, 800 mg q 8 h, GM, read-out: t1/2 (converted)): 7.46 h | AUC [2, 19]: 835 ng·h/mL | Cmax [2, 19]: 240 ng/mL | Tmax [2, 19]: 2 h | half-life ([2]; 800 mg, Day 7, 800 mg q 8 h, Median, read-out: t1/2 (converted)): 8.03 h | half-life ([2]; calculated over a 24 hour period, read-out: terminal elimination half-life (converted)): ~10 h
